Data published in patent US11708367B2, “Compounds for the treatment of kinase-dependent disorders” (Exelixis, Inc., priority 2018, dated 2023).

Columns and labels:
Human Axl = Human Axl (Homo sapiens (Human), UniProt P30530, Q764R); assay: Human AXL kinase assay (33P radiometric, KinaseProfiler); format: biochemical; conditions: 10 μM ATP
AXL = AXL (Homo sapiens (Human), UniProt P30530); assay: AXL autophosphorylation ELISA in A-172 cells; format: cell-based; conditions: cellular, Gas6-stimulated, phospho-AXL ELISA
Chain of AXL (P30530 26-894): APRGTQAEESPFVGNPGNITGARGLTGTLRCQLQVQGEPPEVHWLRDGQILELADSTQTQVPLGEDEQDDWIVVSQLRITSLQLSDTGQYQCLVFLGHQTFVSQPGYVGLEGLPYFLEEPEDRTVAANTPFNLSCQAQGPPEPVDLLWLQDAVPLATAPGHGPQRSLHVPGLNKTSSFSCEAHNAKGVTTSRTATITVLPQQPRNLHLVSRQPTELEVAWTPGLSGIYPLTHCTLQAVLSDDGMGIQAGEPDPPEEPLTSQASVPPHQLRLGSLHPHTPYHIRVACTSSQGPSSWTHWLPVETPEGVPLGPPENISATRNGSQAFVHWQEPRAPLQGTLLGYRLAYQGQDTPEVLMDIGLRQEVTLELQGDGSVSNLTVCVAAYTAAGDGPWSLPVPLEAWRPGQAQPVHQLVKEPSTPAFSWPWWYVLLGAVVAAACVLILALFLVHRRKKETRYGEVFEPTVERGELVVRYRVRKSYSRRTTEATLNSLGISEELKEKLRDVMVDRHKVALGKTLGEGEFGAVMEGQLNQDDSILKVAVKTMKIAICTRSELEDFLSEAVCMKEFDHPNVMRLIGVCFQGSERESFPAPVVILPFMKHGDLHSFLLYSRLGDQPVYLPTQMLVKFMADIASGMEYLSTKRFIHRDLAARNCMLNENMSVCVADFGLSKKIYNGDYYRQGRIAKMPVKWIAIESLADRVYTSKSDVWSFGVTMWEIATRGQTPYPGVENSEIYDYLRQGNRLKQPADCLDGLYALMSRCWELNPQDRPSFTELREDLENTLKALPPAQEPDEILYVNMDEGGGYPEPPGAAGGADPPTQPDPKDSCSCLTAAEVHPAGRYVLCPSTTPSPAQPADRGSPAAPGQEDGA
Summary of the method: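 A-172 glioblastoma cells, serum-starved 24 h, got 8-point compound dilutions (0.3% DMSO) for 1 h, then 1 μg/mL human Gas6 for 15 min. Phospho-AXL in lysates was quantified by ELISA against a standard, normalized between DMSO and reference-inhibitor controls; IC50 by 4-parameter logistic fit.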

Met = Met (Homo sapiens (Human), UniProt P08581); assay: Met autophosphorylation ELISA in PC-3 cells; format: cell-based; conditions: cellular, HGF-stimulated, phospho-Met ELISA, read-out: c-Met IC50
Chain of Met (P08581 25-1390): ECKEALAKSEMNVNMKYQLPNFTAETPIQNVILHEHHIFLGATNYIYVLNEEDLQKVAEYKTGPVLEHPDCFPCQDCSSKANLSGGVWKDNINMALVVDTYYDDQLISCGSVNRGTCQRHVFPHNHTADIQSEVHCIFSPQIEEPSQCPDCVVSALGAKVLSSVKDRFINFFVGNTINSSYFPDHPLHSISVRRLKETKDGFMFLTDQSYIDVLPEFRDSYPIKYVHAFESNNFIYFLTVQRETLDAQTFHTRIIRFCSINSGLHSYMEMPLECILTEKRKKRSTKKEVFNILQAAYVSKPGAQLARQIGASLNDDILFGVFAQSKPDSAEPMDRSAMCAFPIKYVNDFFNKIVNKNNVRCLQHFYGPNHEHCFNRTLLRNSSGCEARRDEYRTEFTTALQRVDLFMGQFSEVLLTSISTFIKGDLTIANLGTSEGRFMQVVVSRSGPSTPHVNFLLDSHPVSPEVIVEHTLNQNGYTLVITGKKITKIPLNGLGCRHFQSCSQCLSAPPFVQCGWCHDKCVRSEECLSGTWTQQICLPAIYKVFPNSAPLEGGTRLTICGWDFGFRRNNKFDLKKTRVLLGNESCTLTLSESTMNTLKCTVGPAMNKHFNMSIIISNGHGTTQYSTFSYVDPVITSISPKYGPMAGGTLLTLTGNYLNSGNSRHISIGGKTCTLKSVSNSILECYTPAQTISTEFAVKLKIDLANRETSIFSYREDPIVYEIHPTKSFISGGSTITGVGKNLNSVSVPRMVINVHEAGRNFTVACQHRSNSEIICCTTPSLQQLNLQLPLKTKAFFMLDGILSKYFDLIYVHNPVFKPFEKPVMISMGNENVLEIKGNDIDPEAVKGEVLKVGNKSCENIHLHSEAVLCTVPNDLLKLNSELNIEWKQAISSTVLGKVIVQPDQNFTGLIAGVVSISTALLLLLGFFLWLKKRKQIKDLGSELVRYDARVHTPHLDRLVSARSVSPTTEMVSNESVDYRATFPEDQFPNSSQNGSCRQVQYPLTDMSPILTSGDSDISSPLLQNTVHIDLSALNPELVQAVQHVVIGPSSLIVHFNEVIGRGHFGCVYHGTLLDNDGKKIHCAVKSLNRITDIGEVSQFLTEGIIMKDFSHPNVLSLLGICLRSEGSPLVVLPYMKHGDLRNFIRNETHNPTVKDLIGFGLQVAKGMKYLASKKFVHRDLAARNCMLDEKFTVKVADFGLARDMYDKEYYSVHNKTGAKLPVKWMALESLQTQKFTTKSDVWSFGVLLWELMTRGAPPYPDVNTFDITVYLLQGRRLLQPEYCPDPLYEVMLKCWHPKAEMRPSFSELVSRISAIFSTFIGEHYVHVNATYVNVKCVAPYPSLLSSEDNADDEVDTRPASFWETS
Summary of the method: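 Serum-starved PC-3 cells treated 1 h with compound (8-point series, 0.3% DMSO), then stimulated 10 min with 100 ng/mL HGF. Phospho-Met (panTyr) quantified in lysates by sandwich ELISA; IC50 from 4-parameter logistic fit against DMSO and reference-inhibitor controls.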

Mer = Mer (Homo sapiens (Human), UniProt Q12866); assay: Human Mer kinase assay (33P radiometric, KinaseProfiler); format: biochemical; conditions: 10 μM ATP
Chain of Mer (Q12866 557-882): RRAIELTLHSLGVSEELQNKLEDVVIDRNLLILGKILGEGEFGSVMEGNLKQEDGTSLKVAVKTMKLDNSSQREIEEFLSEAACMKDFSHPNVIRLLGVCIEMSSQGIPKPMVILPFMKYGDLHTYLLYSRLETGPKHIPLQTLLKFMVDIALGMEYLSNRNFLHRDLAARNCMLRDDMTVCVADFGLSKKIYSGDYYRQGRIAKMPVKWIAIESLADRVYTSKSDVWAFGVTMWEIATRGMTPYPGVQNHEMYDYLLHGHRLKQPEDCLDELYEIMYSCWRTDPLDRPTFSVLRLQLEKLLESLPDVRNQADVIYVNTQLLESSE

Chain of Human Axl (P30530 473-894 Q764R): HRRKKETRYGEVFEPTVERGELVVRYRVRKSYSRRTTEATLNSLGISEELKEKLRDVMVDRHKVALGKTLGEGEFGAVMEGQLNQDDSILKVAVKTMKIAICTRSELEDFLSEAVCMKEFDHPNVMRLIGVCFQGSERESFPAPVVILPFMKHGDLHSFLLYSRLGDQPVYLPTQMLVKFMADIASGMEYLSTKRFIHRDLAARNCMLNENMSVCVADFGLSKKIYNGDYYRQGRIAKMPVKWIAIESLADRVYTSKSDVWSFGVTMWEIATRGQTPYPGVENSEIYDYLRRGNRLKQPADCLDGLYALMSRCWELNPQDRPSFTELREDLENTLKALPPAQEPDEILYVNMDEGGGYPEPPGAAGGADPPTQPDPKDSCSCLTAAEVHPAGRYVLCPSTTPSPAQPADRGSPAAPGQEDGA

IC50 (Human Axl): 0.01 to 0.1 µM
IC50 (AXL): 0.01 to 0.1 µM
IC50 (Met): 0.01 to 0.1 µM
IC50 (Mer): ≤ 0.01 µM
SMILES: COc1cc2ncnc(Oc3ccc(NC(=O)C4(C(=O)Nc5ccc(F)cc5)CC4)cc3Cl)c2nc1OC [Compound 29, 1-N′-[3-chloro-4-(6,7-dimethoxypyrido[3,2-d]pyrimidin-4-yl)oxyphenyl]-1-N-(4-fluorophenyl)cyclo-propane-1,1-dicarboxamide]
